Blank lines part the entries; values can stand above or below the molecule they belong to.
Key:
[1] = Glutathione stability / reactivity experiment; assay type: physicochemical; conditions: 37 °C, DMSO, five-fold molar excess of glutathione, HPLC, up to 24 hours
[2] = system: single-strand annealing (SSA) in HEK293 cells; experiment: SSA repair efficiency, SA-GFP reporter; assay type: cell-based, human; conditions: 24 hours
[3] = system: HEK293 cells; experiment: Sensitization of cells to MMC; assay type: cell-based, human; conditions: HEK293, varying MMC 24 hours then compound 24 hours (Figure 4)
[4] = system: HR repair in HEK293 cells; experiment: HR repair efficiency, DR-GFP reporter; assay type: cell-based, human; conditions: 24 hours
[5] = molecular target: T1, human RAD51 protein (Homo sapiens, UniProt Q06609); experiment: FP-based DNA binding assay; conditions: compound 59 μM, 0.23 μM RAD51 (Figure 2B)
T1 sequence (Q06609 1-339): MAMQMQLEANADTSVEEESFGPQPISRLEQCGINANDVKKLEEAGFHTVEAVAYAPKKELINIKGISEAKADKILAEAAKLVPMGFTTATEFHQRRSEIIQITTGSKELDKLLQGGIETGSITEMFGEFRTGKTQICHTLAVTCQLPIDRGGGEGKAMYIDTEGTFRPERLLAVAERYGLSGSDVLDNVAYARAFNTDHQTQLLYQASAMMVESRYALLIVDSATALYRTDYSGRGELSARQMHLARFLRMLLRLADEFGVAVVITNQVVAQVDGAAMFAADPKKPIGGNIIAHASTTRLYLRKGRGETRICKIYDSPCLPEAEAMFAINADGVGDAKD

[6] = system: human cells; conditions: requires long (>10 hour) pre-incubation of cells with compound; cited from earlier work
[7] = molecular target: T1, human RAD51 protein; experiment: DNA binding competition; conditions: 10 μM compound prior to washing (Figure 2C)
[8] = system: human cells; conditions: cited from earlier work
[9] = 60 μM, compared with 1 at 20 μM

- reactivity with glutathione [1]: no reactivity
SMILES: COc1ccc(C2=C(N3CCOCC3)C(=O)N(c3ccc(Cl)c(Cl)c3)C2=O)cc1 [7a, 1-(3,4-dichlorophenyl)-3-(4-methoxyphenyl)-4-morpholino-1H-pyrrole-2,5-dione]
- effect on SSA efficiency [2, 9]: very similar effects
- sensitization of cells to MMC [3]: significant sensitization of cells
- effect on HR efficiency [4, 9]: very similar effects
- time dependence of inhibition of RAD51 DNA binding activity [5]: did not observe any time-dependent increase

SMILES: O=c1c2ccccc2nc(/C=C/c2cccnc2)n1Cc1ccccc1 [B02]
- sensitization of cells to cross-linking chemotherapeutic drugs [6]: does successfully sensitize cells

- RAD51 DNA binding activity after compound treatment on beads and washing [7]: significantly inactivated
- time dependence of inhibition of RAD51 DNA binding activity [5]: time-dependent
SMILES: O=C1C(Cl)=C(N2CCOCC2)C(=O)N1c1ccc(Cl)c(Cl)c1 [compound 1]
- effect on SSA efficiency ([2]; 20 μM): stimulation of SSA
- sensitization of cells to MMC [3]: significant sensitization of cells
- effect on HR efficiency ([4]; 20 μM): inhibition of HR

SMILES: C[C@@]12CCC(=O)c3coc(c31)C(=O)c1cc3c(cc12)C(=O)C=CC3=O [halenaquinone]
- sensitization of cells to ionizing radiation [8]: not capable of sensitizing cells to ionizing radiation
